#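 96-well plates; 48 h exposure; 5 concentrations. Endpoints by linear interpolation between flanking doses. Not reached: highest tested concentration assigned. TGI is the concentration that stops growth completely.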
# Tests used:
# Assay in all cases: NCI-60 cell line screen, 48 h
# 786-0 renal = test system: 786-0 renal
# MDA-MB-435 = test system: MDA-MB-435
# HL-60(TB) leukemia = test system: HL-60(TB) leukemia
# COLO 205 colon = test system: COLO 205 colon
# SK-MEL-2 melanoma = test system: SK-MEL-2 melanoma
# PC-3 prostate = test system: PC-3 prostate
# MOLT-4 leukemia = test system: MOLT-4 leukemia
# MDA-MB-231 breast = test system: MDA-MB-231 breast
# SNB-75 CNS = test system: SNB-75 CNS
# CCRF-CEM leukemia = test system: CCRF-CEM leukemia
# ACHN renal = test system: ACHN renal
# A549 NSCLC = test system: A549 NSCLC
# NCI-H23 lung = test system: NCI-H23 lung
# SK-MEL-28 melanoma = test system: SK-MEL-28 melanoma
# SNB-19 CNS = test system: SNB-19 CNS
# NCI-H522 lung = test system: NCI-H522 lung
# HCT-116 colon = test system: HCT-116 colon
# HOP-62 NSCLC = test system: HOP-62 NSCLC
# NCI/ADR-RES ovarian = test system: NCI/ADR-RES ovarian
# OVCAR-8 ovarian = test system: OVCAR-8 ovarian
# SF-268 CNS = test system: SF-268 CNS
# OVCAR-5 ovarian = test system: OVCAR-5 ovarian
# IGROV1 ovarian = test system: IGROV1 ovarian
# CAKI-1 renal = test system: CAKI-1 renal
# EKVX NSCLC = test system: EKVX NSCLC
# KM12 colon = test system: KM12 colon
# A498 renal = test system: A498 renal
# OVCAR-3 ovarian = test system: OVCAR-3 ovarian
# UACC-62 melanoma = test system: UACC-62 melanoma
# HT29 colon = test system: HT29 colon
# T-47D breast = test system: T-47D breast
# MALME-3M melanoma = test system: MALME-3M melanoma
# SF-295 CNS = test system: SF-295 CNS
# DU-145 prostate = test system: DU-145 prostate
# TK-10 renal = test system: TK-10 renal
# SK-OV-3 ovarian = test system: SK-OV-3 ovarian
# RPMI-8226 leukemia = test system: RPMI-8226 leukemia
# RXF 393 renal = test system: RXF 393 renal
# BT-549 breast = test system: BT-549 breast
# MDA-N = test system: MDA-N
# HCC-2998 colon = test system: HCC-2998 colon
# MCF7 breast = test system: MCF7 breast
# SF-539 CNS = test system: SF-539 CNS
# LOX IMVI melanoma = test system: LOX IMVI melanoma
# SN12C renal = test system: SN12C renal
# NCI-H226 lung = test system: NCI-H226 lung
# OVCAR-4 ovarian = test system: OVCAR-4 ovarian
# K-562 leukemia = test system: K-562 leukemia
# U251 CNS = test system: U251 CNS
# HCT-15 colon = test system: HCT-15 colon
# SW-620 colon = test system: SW-620 colon
# NCI-H460 lung = test system: NCI-H460 lung
# M14 melanoma = test system: M14 melanoma
# UACC-257 melanoma = test system: UACC-257 melanoma
# HOP-92 NSCLC = test system: HOP-92 NSCLC
# UO-31 renal = test system: UO-31 renal
# HS 578T breast = test system: HS 578T breast
# SK-MEL-5 melanoma = test system: SK-MEL-5 melanoma
# SR leukemia = test system: SR leukemia
structure (smiles),measurement,setting,value
O=C(N/N=C(/COc1ccc([N+](=O)[O-])cc1)N=Cc1ccncc1)c1ccncc1,TGI,786-0 renal,> 100 µM
same,TGI,MDA-MB-435,> 100 µM
same,TGI,HL-60(TB) leukemia,> 100 µM
same,TGI,COLO 205 colon,> 100 µM
same,TGI,SK-MEL-2 melanoma,> 100 µM
same,TGI,PC-3 prostate,> 100 µM
same,TGI,MOLT-4 leukemia,> 100 µM
same,TGI,MDA-MB-231 breast,> 100 µM
same,TGI,SNB-75 CNS,> 100 µM
same,TGI,CCRF-CEM leukemia,> 100 µM
same,TGI,ACHN renal,> 100 µM
same,TGI,A549 NSCLC,> 100 µM
same,TGI,NCI-H23 lung,> 100 µM
same,TGI,SK-MEL-28 melanoma,> 100 µM
same,TGI,SNB-19 CNS,> 100 µM
same,TGI,NCI-H522 lung,> 100 µM
same,TGI,HCT-116 colon,> 100 µM
same,TGI,HOP-62 NSCLC,> 100 µM
same,TGI,NCI/ADR-RES ovarian,> 100 µM
same,TGI,OVCAR-8 ovarian,> 100 µM
same,TGI,SF-268 CNS,> 100 µM
same,TGI,OVCAR-5 ovarian,> 100 µM
same,TGI,IGROV1 ovarian,> 100 µM
same,TGI,CAKI-1 renal,> 100 µM
same,TGI,EKVX NSCLC,> 100 µM
same,TGI,KM12 colon,> 100 µM
same,TGI,A498 renal,> 100 µM
same,TGI,OVCAR-3 ovarian,> 100 µM
same,TGI,UACC-62 melanoma,> 100 µM
same,TGI,HT29 colon,> 100 µM
same,TGI,T-47D breast,> 100 µM
same,TGI,MALME-3M melanoma,> 100 µM
same,TGI,SF-295 CNS,> 100 µM
same,TGI,DU-145 prostate,> 100 µM
same,TGI,TK-10 renal,> 100 µM
same,TGI,SK-OV-3 ovarian,> 100 µM
same,TGI,RPMI-8226 leukemia,> 100 µM
same,TGI,RXF 393 renal,> 100 µM
same,TGI,BT-549 breast,> 100 µM
same,TGI,MDA-N,> 100 µM
same,TGI,HCC-2998 colon,> 100 µM
same,TGI,MCF7 breast,> 100 µM
same,TGI,SF-539 CNS,> 100 µM
same,TGI,LOX IMVI melanoma,> 100 µM
same,TGI,SN12C renal,> 100 µM
same,TGI,NCI-H226 lung,> 100 µM
same,TGI,OVCAR-4 ovarian,> 100 µM
same,TGI,K-562 leukemia,> 100 µM
same,TGI,U251 CNS,> 100 µM
same,TGI,HCT-15 colon,> 100 µM
same,TGI,SW-620 colon,> 100 µM
same,TGI,NCI-H460 lung,> 100 µM
same,TGI,M14 melanoma,> 100 µM
same,TGI,UACC-257 melanoma,> 100 µM
CCOC(=O)CNc1nc(=O)c2c(=O)oc(Cl)cc2o1,TGI,786-0 renal,21.9 µM
same,TGI,MDA-MB-435,35.4 µM
same,TGI,HOP-92 NSCLC,19.5 µM
same,TGI,UO-31 renal,25.4 µM
same,TGI,COLO 205 colon,> 100 µM
same,TGI,SK-MEL-2 melanoma,44.5 µM
same,TGI,PC-3 prostate,26 µM
same,TGI,MOLT-4 leukemia,29.8 µM
same,TGI,MDA-MB-231 breast,59.1 µM
same,TGI,SNB-75 CNS,24.7 µM
same,TGI,CCRF-CEM leukemia,68.3 µM
same,TGI,ACHN renal,26.3 µM
same,TGI,A549 NSCLC,40.6 µM
same,TGI,NCI-H23 lung,38.5 µM
same,TGI,SK-MEL-28 melanoma,63.7 µM
same,TGI,SNB-19 CNS,> 100 µM
same,TGI,NCI-H522 lung,17.3 µM
same,TGI,HCT-116 colon,24.4 µM
same,TGI,HOP-62 NSCLC,53.3 µM
same,TGI,NCI/ADR-RES ovarian,50.3 µM
same,TGI,OVCAR-8 ovarian,23.2 µM
same,TGI,SF-268 CNS,27.9 µM
same,TGI,OVCAR-5 ovarian,38.7 µM
same,TGI,IGROV1 ovarian,21.7 µM
same,TGI,CAKI-1 renal,29.1 µM
same,TGI,EKVX NSCLC,29.6 µM
same,TGI,KM12 colon,55.3 µM
same,TGI,A498 renal,38 µM
same,TGI,OVCAR-3 ovarian,25.5 µM
same,TGI,UACC-62 melanoma,39.9 µM
same,TGI,HT29 colon,22.6 µM
same,TGI,T-47D breast,61.7 µM
same,TGI,MALME-3M melanoma,23.5 µM
same,TGI,SF-295 CNS,> 100 µM
same,TGI,DU-145 prostate,> 100 µM
same,TGI,TK-10 renal,28 µM
same,TGI,SK-OV-3 ovarian,> 100 µM
same,TGI,MDA-N,48 µM
same,TGI,HCC-2998 colon,29 µM
same,TGI,SF-539 CNS,22 µM
same,TGI,LOX IMVI melanoma,22.3 µM
same,TGI,SN12C renal,53.1 µM
same,TGI,NCI-H226 lung,> 100 µM
same,TGI,OVCAR-4 ovarian,34.3 µM
same,TGI,K-562 leukemia,24.4 µM
same,TGI,U251 CNS,85.3 µM
same,TGI,HS 578T breast,45.1 µM
same,TGI,SK-MEL-5 melanoma,> 100 µM
same,TGI,HCT-15 colon,23.7 µM
same,TGI,SW-620 colon,85.6 µM
same,TGI,NCI-H460 lung,36.2 µM
same,TGI,M14 melanoma,49.1 µM
same,TGI,UACC-257 melanoma,38.4 µM
O=c1c(=O)c2c(Br)sc(Br)c2c1=O,TGI,786-0 renal,56.5 µM
same,TGI,MDA-MB-435,37.7 µM
same,TGI,HOP-92 NSCLC,33 µM
same,TGI,UO-31 renal,51.4 µM
same,TGI,COLO 205 colon,38.6 µM
same,TGI,SK-MEL-2 melanoma,41.1 µM
same,TGI,PC-3 prostate,36.5 µM
same,TGI,MOLT-4 leukemia,48.3 µM
same,TGI,SNB-75 CNS,75.2 µM
same,TGI,ACHN renal,44.7 µM
same,TGI,A549 NSCLC,> 100 µM
same,TGI,NCI-H23 lung,40.6 µM
same,TGI,SK-MEL-28 melanoma,28.7 µM
same,TGI,SNB-19 CNS,> 100 µM
same,TGI,NCI-H522 lung,32 µM
same,TGI,HCT-116 colon,37.8 µM
same,TGI,HOP-62 NSCLC,> 100 µM
same,TGI,NCI/ADR-RES ovarian,> 100 µM
same,TGI,OVCAR-8 ovarian,37.4 µM
same,TGI,SF-268 CNS,> 100 µM
same,TGI,OVCAR-5 ovarian,39.8 µM
same,TGI,IGROV1 ovarian,34.7 µM
same,TGI,CAKI-1 renal,33.4 µM
same,TGI,EKVX NSCLC,42.8 µM
same,TGI,KM12 colon,> 100 µM
same,TGI,A498 renal,> 100 µM
same,TGI,OVCAR-3 ovarian,35.2 µM
same,TGI,UACC-62 melanoma,39.3 µM
same,TGI,HT29 colon,57.4 µM
same,TGI,T-47D breast,47.8 µM
same,TGI,MALME-3M melanoma,31.8 µM
same,TGI,SF-295 CNS,> 100 µM
same,TGI,SR leukemia,44.2 µM
same,TGI,DU-145 prostate,> 100 µM
same,TGI,TK-10 renal,47.7 µM
same,TGI,SK-OV-3 ovarian,> 100 µM
same,TGI,RPMI-8226 leukemia,45.9 µM
same,TGI,RXF 393 renal,34.7 µM
same,TGI,BT-549 breast,36.6 µM
same,TGI,MDA-N,32.8 µM
same,TGI,HCC-2998 colon,> 100 µM
same,TGI,MCF7 breast,42.3 µM
same,TGI,SF-539 CNS,35.3 µM
same,TGI,LOX IMVI melanoma,36.4 µM
same,TGI,SN12C renal,31.6 µM
same,TGI,NCI-H226 lung,> 100 µM
same,TGI,OVCAR-4 ovarian,31.2 µM
same,TGI,K-562 leukemia,51 µM
same,TGI,U251 CNS,61 µM
same,TGI,HS 578T breast,> 100 µM
same,TGI,SK-MEL-5 melanoma,31.8 µM
same,TGI,HCT-15 colon,40.1 µM
same,TGI,SW-620 colon,31.8 µM
same,TGI,NCI-H460 lung,> 100 µM
same,TGI,M14 melanoma,34.3 µM
same,TGI,UACC-257 melanoma,36.5 µM
CC/C=C(\C(=C/CC)[N+](=O)[O-])[N+](=O)[O-],TGI,MDA-MB-435,31.6 µM
same,TGI,HOP-92 NSCLC,45.1 µM
same,TGI,UO-31 renal,33 µM
same,TGI,COLO 205 colon,37 µM
same,TGI,SK-MEL-2 melanoma,> 100 µM
same,TGI,PC-3 prostate,> 100 µM
same,TGI,MOLT-4 leukemia,64.9 µM
same,TGI,MDA-MB-231 breast,36.2 µM
same,TGI,SNB-75 CNS,> 100 µM
same,TGI,CCRF-CEM leukemia,42.4 µM
same,TGI,ACHN renal,33.2 µM
same,TGI,A549 NSCLC,> 100 µM
same,TGI,NCI-H23 lung,34.3 µM
same,TGI,SK-MEL-28 melanoma,37.1 µM
same,TGI,SNB-19 CNS,> 100 µM
same,TGI,HCT-116 colon,35.1 µM
same,TGI,HOP-62 NSCLC,> 100 µM
same,TGI,NCI/ADR-RES ovarian,52.7 µM
same,TGI,OVCAR-8 ovarian,39 µM
same,TGI,OVCAR-5 ovarian,27.2 µM
same,TGI,IGROV1 ovarian,35.9 µM
same,TGI,CAKI-1 renal,37.8 µM
same,TGI,EKVX NSCLC,29.8 µM
same,TGI,OVCAR-3 ovarian,30.5 µM
same,TGI,UACC-62 melanoma,33.6 µM
same,TGI,HT29 colon,31.9 µM
same,TGI,T-47D breast,55.6 µM
same,TGI,SF-295 CNS,> 100 µM
same,TGI,DU-145 prostate,45.7 µM
same,TGI,TK-10 renal,33.7 µM
same,TGI,SK-OV-3 ovarian,> 100 µM
same,TGI,RPMI-8226 leukemia,47.6 µM
same,TGI,RXF 393 renal,31 µM
same,TGI,BT-549 breast,32.2 µM
same,TGI,MDA-N,43 µM
same,TGI,HCC-2998 colon,34.4 µM
same,TGI,MCF7 breast,38.1 µM
same,TGI,SF-539 CNS,40.3 µM
same,TGI,LOX IMVI melanoma,32.2 µM
same,TGI,SN12C renal,35.2 µM
same,TGI,NCI-H226 lung,> 100 µM
same,TGI,OVCAR-4 ovarian,45.7 µM
same,TGI,K-562 leukemia,71.3 µM
same,TGI,U251 CNS,34.3 µM
same,TGI,SK-MEL-5 melanoma,47.9 µM
same,TGI,SW-620 colon,32 µM
same,TGI,NCI-H460 lung,35.5 µM
same,TGI,M14 melanoma,27 µM
same,TGI,UACC-257 melanoma,32.1 µM

# Source: PubChem BioAssay (NCI)
